Measured values reported in patent US5780505A, “Substituted N-arylmethylamino derivatives of cyclobutene-3, 4-diones” (American Home Products Corporation, priority 1997, dated 1998).
Where two headings read alike, the source gives them in different places.

What was measured:
[1] = tested on: Isolated Rat Bladder Strips; assay: Inhibition of contractions in isolated rat bladder strips (KCl-enhanced contractile activity; smooth muscle relaxation); assay type: cell-based, Sprague-Dawley rats
Summary of the method: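 Bladder strips from Sprague-Dawley rats were held in 37 °C PSS (pH 7.4, 95% O2/5% CO2) at 1.5 g resting tension with isometric force recording. Contractions were enhanced by an extra 15 mM KCl, then cumulative compound concentrations were added, each measured over the last minute of 30 min. IC50 is 50% inhibition of pre-drug contractile activity from the concentration-response curve.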

[2] = tested on: hypertrophied bladder (detrussor) smooth muscle; assay: Inhibition of spontaneous contractions in vivo (conscious female rats with hypertrophied bladders, cystometry); set-up: species or system Female Sprague-Dawley rats; conditions: hypertrophied rat bladder model
Source text: In addition, we tested the ability of compounds to inhibit the hyperactivity of hypertrophied bladder (detrussor) smooth muscle in conscious female rats with hypertrophied bladders and thereby alleviate urinary incontinence in rats according to the following protocol described by Malmgren (A. Malmgren, K. E. Andersson, C. Sjogren, P. O. Andersson, Effects of pinacidil and Cromakalim (BRL 34915) on Bladder Function in Rats with Detrusor Instability, J. Urol. 142: 1134, 1989.):
Female Sprague-Dawley rats, ranging in weight from 190-210 g are used. Up to 25 animals are prepared each time. After developemnt of bladder hypertrophy 4-8 animals are used per test.
Compounds are dissolved in PEG-200 and administered by gastric gavage or intraveneously in a volume of 5 ml/kg. For primary screening all drugs are administered at the arbitrary dose of 10 mg/kg p.o. to groups of 4 rats.
The animals are anesthetized with halothane. Through a midline incision the bladder and urethra are exposed and a ligature of 4-0 silk is tied around the proximal urethra in the presence of a stainless steel rod (1 mm diameter) to produce a partial occlusion. The rod is then removed. The abdominal region is closed using surgical staples and each rat receives 150,000 units of bicillin C-R. The animals ar allowed six weeks to develop sufficient bladder hypertrophy. After six weeks, the ligature is removed under halothane anesthesia and a catheter (PE 60) with a cuff is placed in the dome of the bladder and secured with a purse string suture. The catheter is tunneled under the skin and exteriorized through an opening in the back of the neck. The abdominal incision is sutured and the free end of the catheter sealed. In order to prevent infections the rats receive an injection of bicillin C-R (150000 units/rat). Two days later the animals are used in cystometrical evaluations, The animals are placed in the metabolic cages and the catheter is attached (using a "T" connector) to a Statham pressure transducer (Model P23Db) and to a Harvard infusion pump. A plastic beaker attached to a force displacement transducer (Grass FTO3) is placed under the rat's cage to collect and record urine volume. Animals are allowed 15-30 min t rest before the saline infusion (20 ml/hr for 20 minutes) is started for the first cystometry period. Two hours after the first cystometry period, the rats are dosed with the vehicle or the test compound and one hour later a second cystometry is performed.
The following urodynamic variables are recorded:
Basal bladder pressure=the lowest bladder pressure during cystometry
Threshold pressure=bladder pressure immediately prior to micturition
Micturition volume=volume expelled
Micturition pressure=peak pressure during voiding
Spontaneous activity=mean amplitude of bladder pressure fluctuations during filling
Presentation of results: The mean value of each variable is calculated before and after compound administration. For each compound the changes in the variables measured are compared to the values obtained before treatment and expressed as percent inhibition. The data are also subjected to 2-way analysis of variance to determine significant (p<0.05) changes in the variable measured.
Criteria for Activity: The most characteristic finding in this rat model is spontaneous bladder contractions which develop during filling. The compounds which inhibit spontaneous contractions by at least 50% at 10 mg/kg p.o. or i.v. (arbitrary chosen dose) are considered active.

[3] = 0.5 h, isolated rat bladder strips, 15 mM additional KCl, 30 minute challenge, read-out: IC50 (50% inhibition of pre-drug contractile activity)

Compound	IC50 [1, 3] [nM]	% Red (F): percent reduction in the total number of spontaneous contractions ([2]; 10 mg/kg p.o.) [%]	% Red (F): percent reduction in the total number of spontaneous contractions ([2]; 3 mg/kg p.o.) [%]	IC50 ([1]; Rattus norvegicus, second lot (mp 215.5-216.0° C., softens 211.5° C.), n = 6, read-out: IC50 of a second lot) [nM]
Cc1cccc(Cl)c1CNc1c(NC(C)(C)C)c(=O)c1=O [Example 31, 3-tert-Butylamino-4-(2-chloro-6-methyl-benzylamino)-cyclobut-3-ene-1,2-dion]	1100 ± 300	-38 ± 13	–	–
Cc1cc(Br)cc(C)c1CNc1c(NC(C)(C)C)c(=O)c1=O [Example 36, 3-(4-Bromo-2,6-dimethyl-benzylamino)-4-tert-butylamino-cyclobut-3-ene-1,2-dione]	290 ± 20	–	-83 ± 9	–
CCC(C)(C)Nc1c(NCc2ccc(C#N)cc2Cl)c(=O)c1=O [Example 76]	60 ± 14	–	-57 ± 12	130 ± 30
